Test results taken from patent US8653096B2, “Chemokine receptor antagonists and methods of use thereof” (Millennium Pharmaceuticals, Inc., priority 2001, dated 2014).

target: T1, RANTES/MIP-1α chemokine receptor (CCR1) in THP-1 cell membranes (Homo sapiens, UniProt P32246); test: Receptor binding assay: 125I-RANTES or 125I-MIP-1α binding to THP-1 cell membranes; details: not given
T1 construct: Membranes were prepared from THP-1 cells (ATCC #TIB202); host or cells: THP-1 cells (membrane preparation)
T1 sequence (P32246 1-355): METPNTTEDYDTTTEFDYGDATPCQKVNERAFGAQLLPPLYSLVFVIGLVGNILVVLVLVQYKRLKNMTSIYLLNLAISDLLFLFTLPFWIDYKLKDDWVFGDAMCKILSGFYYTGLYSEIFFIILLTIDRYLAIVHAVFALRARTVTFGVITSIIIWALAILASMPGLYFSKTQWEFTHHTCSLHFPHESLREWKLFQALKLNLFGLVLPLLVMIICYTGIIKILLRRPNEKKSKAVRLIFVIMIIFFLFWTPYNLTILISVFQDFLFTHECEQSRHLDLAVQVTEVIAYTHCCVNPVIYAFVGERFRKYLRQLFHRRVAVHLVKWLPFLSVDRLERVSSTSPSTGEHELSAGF

SMILES	IC50 [µM]
CC(C)NC(=O)Oc1ccc2c(c1)C(=CCCN1CCC(O)(c3ccc(Cl)cc3)C(C)(C)C1)c1cccnc1CO2 (centres unmarked) [Example 547, Isopropyl-carbamic acid 5-{3-[4-(4-chloro-phenyl)-4-hydroxy-3,3-dimethyl-piperidin-1-yl]-propylidene}-5,11-dihydro-10-oxa-1-aza-dibenzo[a,d]cyclohepten-7-yl ester]	< 1

same assay, conditions: inhibitor concentration required for 50% inhibition of specific binding; 125I-RANTES or 125I-MIP-1α as ligand, THP-1 cell membranes; read-out: IC50

IC50 [µM]	SMILES
< 10	CC(C)(O)c1ccc2c(c1)C(=CCCN1CCN(c3ccc(Cl)c(Cl)c3)CC1)c1cccnc1CO2 [Example 538, 2-(5-{3-[4-(3,4-Dichloro-phenyl)-piperazin-1-yl]-propylidene}-5,11-dihydro-10-oxa-1-aza-dibenzo[a,d]cyclohepten-7-yl)-propan-2-ol]
< 10	Cc1cc(Cl)ccc1N1CCN(CCC=C2c3cc(C(C)(C)O)ccc3OCc3ncccc32)CC1 [Example 539, 2-(5-{3-[4-(4-Chloro-2-methyl-phenyl)-piperazin-1-yl]-propylidene}-5,11-dihydro-10-oxa-1-aza-dibenzo[a,d]cyclohepten-7-yl)-propan-2-ol]
< 10	CC(C)(O)c1ccc2c(c1)C(=CCCN1CCN(c3ccc(Cl)cc3C#N)CC1)c1cccnc1CO2 [Example 540, 5-Chloro-2-(4-{3-[7-(1-hydroxy-1-methyl-ethyl)-11H-10-oxa-1-aza-dibenzo[a,d]cyclohepten-5-ylidene]-propyl}-piperazin-1-yl)-benzonitrile]
< 10	COC(=O)c1cc(Cl)ccc1N1CCN(CCC=C2c3cc(C(C)(C)O)ccc3OCc3ncccc32)CC1 [Example 541, 5-Chloro-2-(4-{3-[7-(1-hydroxy-1-methyl-ethyl)-11H-10-oxa-1-aza-dibenzo[a,d]cyclohepten-5-ylidene]-propyl}-piperazin-1-yl)-benzoic acid methyl ester]
< 10	CC(C)(O)c1ccc2c(c1)C(=CCCN1CCC(NC(=O)Cc3ccc(Cl)cc3)CC1)c1cccnc1CO2 [Example 542, 2-(4-Chloro-phenyl)-N-(1-{3-[7-(1-hydroxy-1-methyl-ethyl)-11H-10-oxa-1-azadibenzo[a,d]cyclohepten-5-ylidene]-propyl}-piperidin-4-yl)-acetamide]
< 10	CCN(CCC=C1c2cc(C(C)(C)O)ccc2OCc2ncccc21)CCN(CC)c1ccc(Cl)cc1 [Example 543, 2-{5-[3-({2-[(4-Chloro-phenyl)-ethyl-amino]-ethyl}-ethyl-amino)-propylidene]-5,11-dihydro-10-oxa-1-aza-dibenzo[a,d]cyclohepten-7-yl}-propan-2-ol]
< 10	CC(C)(O)c1ccc2c(c1)C(=CCCN1CCN(c3ccc(Cl)cc3)C(C(N)=O)C1)c1cccnc1CO2 (centres unmarked) [Example 544, 1-(4-Chloro-phenyl)-4-{3-[7-(1-hydroxy-1-methyl-ethyl)-11H-10-oxa-1-aza-dibenzo[a,d]cyclohepten-5-ylidene]-propyl}-piperazine-2-carboxylic acid amide]
< 10	CC(C)(O)c1ccc2c(c1)C(=CCCN1CCN(c3ccc(Cl)cc3)C(C#N)C1)c1cccnc1CO2 (centres unmarked) [Example 545, 1-(4-Chloro-phenyl)-4-{3-[7-(1-hydroxy-1-methyl-ethyl)-11H-10-oxa-1-aza-dibenzo[a,d]cyclohepten-5-ylidene]-propyl}-piperazine-2-carbonitrile]
< 1	COC(=O)C1CN(CCC=C2c3cc(C(C)(C)O)ccc3OCc3ncccc32)CCN1c1ccc(Cl)cc1 (centres unmarked) [Example 546, 1-(4-Chloro-phenyl)-4-{3-[7-(1-hydroxy-1-methyl-ethyl)-11H-10-oxa-1-aza-dibenzo[a,d]cyclohepten-5-ylidene]-propyl}-piperazine-2-carboxylic acid methyl ester]
< 10	CCN(C(=O)Nc1ccc(Cl)cc1)C1CCN(CCC=C2c3cc(C(C)(C)O)ccc3OCc3ncccc32)C1 (centres unmarked) [Example 548, 3-(4-Chloro-phenyl)-1-ethyl-1-(1-{3-[7-(1-hydroxy-1-methyl-ethyl)-11H-10-oxa-1-aza-dibenzo[a,d]cyclohepten-5-ylidene]-propyl}-pyrrolidin-3-yl)-urea]
